Ends that are not written are not given here.
Assays:
[1] = target: T1, DnaK (Escherichia coli, UniProt P0A6Y8); assay: Fluid phase competition binding assay with acrylodan-labeled NR peptide (a-NR); design: species or system bacterial; settings: read-out: Apparent dissociation equilibrium constant (K'd)
T1 construct: made in house
Procedure: Determination of dissociation equilibrium constants
Peptide NR was labeled with the environmentally sensitive fluorophore acrylodan as described. […] After reaching equilibrium (~1.5 h), emission spectra were recorded from 400 nm to 600 nm (bandpass 4 nm) with a Perkin-Elmer spectrofluorimeter LS50B equipped with a stirrer and a thermostatically controlled cuvette holder. The excitation wavelength was set at 370 nm (bandpass 4 nm). Measurements were performed in a volume of 800 μl in 25 mM Hepes/KOH, 100 mM KCl, 10 mM MgCl2, pH 7.4 containing 1 mM DTT and 1 mM ADP-Pi at 25°C.
(1) ΔF=ΔFmaxxP/(P+Kdx(1+L/K'd))

[2] = tested on: B9-23 - reactive T-cell clones; settings: type 1 diabetes; cited from earlier work

T1 sequence (P0A6Y8 whole entry): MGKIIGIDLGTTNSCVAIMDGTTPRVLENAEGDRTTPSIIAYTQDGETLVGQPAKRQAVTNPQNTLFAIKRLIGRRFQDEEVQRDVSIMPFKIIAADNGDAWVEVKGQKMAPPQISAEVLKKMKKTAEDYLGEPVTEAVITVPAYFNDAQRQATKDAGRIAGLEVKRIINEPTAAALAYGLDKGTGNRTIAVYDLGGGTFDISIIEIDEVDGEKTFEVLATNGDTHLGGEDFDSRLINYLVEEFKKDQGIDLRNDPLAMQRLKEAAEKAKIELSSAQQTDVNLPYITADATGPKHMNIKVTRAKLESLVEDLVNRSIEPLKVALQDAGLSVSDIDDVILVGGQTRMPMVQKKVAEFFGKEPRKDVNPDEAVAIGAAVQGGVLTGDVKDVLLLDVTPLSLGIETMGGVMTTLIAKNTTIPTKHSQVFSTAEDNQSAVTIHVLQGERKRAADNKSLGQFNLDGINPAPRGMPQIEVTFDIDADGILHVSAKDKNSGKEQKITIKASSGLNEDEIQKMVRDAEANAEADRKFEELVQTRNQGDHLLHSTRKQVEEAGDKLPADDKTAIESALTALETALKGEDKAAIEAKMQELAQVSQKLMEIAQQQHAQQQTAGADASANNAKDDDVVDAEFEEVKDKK

Substance	Kd [1] [nM]	immunodominance in autoimmune T-cell reactivity (in words) [2]
VCGERGFFYTPKT [Peptide B18-30]	51900 ± 12800	
LVEALYLVCGERG [Peptide B11-23]	2200 ± 400	
SHAMAPVLYLQDK [Control peptide (sigma32 aa192-204)]	500 ± 100	
B9-23: insulin peptide identified as an immunodominant epitope of autoimmune T-cell reactivity in type 1 diabetes (SHLVEALYLVCGERG; ends and bridges not checked; UniProt P01308 33-47, looked up, fragment) [Peptide B9-23]		immunodominant epitope of autoimmune T-cell reactivity in type 1 diabetes
